Test results as given in patent publication US9221796B2, “Selective NR2B antagonists” (BRISTOL-MYERS SQUIBB COMPANY, priority 2014, dated 2015).

molecular target: NR2B-subtype NMDA receptors (Rattus norvegicus (Rat), UniProt P35439+Q00960); experiment: Radioligand binding assay (3H Ro 25-6981 competition, forebrain membranes); details: 3H Ro 25-6981 (4 nM), read-out: NR2B Binding Ki
Method in brief: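 Rat forebrain membranes competed against [3H]Ro 25-6981 for 1 hr at room temperature, then filtered onto PEI-treated GF/B plates and counted by scintillation. CPM converted to % inhibition, concentration-response curves fitted, Ki derived from at least two experiments.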

Sequence of NR2B-subtype NMDA receptors (Q00960 27-1482, other chains not shown): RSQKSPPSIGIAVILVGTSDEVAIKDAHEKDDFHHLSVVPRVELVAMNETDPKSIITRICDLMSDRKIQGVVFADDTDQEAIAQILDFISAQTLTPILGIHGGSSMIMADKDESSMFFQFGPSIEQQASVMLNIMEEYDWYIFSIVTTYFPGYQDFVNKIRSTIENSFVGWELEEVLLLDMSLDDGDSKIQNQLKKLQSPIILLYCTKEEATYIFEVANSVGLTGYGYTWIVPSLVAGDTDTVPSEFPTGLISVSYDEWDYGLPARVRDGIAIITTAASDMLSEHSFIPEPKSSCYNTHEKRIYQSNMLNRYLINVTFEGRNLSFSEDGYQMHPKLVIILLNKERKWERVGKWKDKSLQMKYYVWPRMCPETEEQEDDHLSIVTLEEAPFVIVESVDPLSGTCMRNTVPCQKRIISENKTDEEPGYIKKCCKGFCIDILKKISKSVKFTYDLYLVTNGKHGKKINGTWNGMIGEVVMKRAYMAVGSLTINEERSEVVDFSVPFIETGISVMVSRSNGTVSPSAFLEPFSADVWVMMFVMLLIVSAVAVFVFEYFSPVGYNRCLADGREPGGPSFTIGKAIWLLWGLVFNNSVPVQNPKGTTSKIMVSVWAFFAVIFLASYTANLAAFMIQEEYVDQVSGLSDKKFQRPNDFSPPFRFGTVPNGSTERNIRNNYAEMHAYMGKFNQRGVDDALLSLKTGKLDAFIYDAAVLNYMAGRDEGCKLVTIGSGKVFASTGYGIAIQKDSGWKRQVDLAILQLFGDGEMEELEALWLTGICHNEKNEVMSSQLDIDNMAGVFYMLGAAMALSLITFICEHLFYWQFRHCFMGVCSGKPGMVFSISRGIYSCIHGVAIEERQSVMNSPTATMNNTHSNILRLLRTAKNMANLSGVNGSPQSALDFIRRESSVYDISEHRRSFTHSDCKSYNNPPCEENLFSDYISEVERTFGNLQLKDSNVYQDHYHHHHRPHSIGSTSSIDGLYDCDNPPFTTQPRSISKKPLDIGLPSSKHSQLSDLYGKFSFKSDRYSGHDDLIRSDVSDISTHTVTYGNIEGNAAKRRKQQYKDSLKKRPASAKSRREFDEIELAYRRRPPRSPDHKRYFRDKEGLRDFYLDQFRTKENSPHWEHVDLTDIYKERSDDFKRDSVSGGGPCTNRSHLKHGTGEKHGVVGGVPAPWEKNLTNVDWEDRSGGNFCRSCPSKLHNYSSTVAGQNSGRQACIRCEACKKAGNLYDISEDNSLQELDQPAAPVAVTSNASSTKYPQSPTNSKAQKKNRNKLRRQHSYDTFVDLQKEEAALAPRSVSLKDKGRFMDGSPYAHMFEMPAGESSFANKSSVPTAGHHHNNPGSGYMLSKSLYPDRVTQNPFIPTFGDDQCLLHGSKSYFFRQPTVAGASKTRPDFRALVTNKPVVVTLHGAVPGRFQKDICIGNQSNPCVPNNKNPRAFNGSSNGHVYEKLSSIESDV

Q: For `O=C1C(N2CCC(c3ccc(O)cc3)CC2)CCN1Cc1ccc(F)cc1` (racemic) [Example 1, 1-(4-Fluorobenzyl)-3-(4-(4-hydroxyphenyl)piperidin-1-yl)pyrrolidin-2-one], which Ki is on record?
A: 0.003 µM

Q: Which Ki does the source give for `O=C1[C@@H](N2CCC(c3ccc(O)cc3)C(F)(F)C2)CCN1Cc1ccc(Cl)c(F)c1` (stereo partly drawn) [Example 96, P-1, (3S)-1-(4-Chloro-3-fluorobenzyl)-3-(3,3-difluoro-4-(4-hydroxyphenyl)piperidin-1-yl)pyrrolidin-2-one] here?
A: 0.49 µM

Q: With `O=C1[C@H](N2CCC(c3ccc(O)cc3)C(F)(F)C2)CCN1Cc1ccc(Cl)c(F)c1` (stereo partly drawn) [Example 96, P-2, (3R)-1-(4-Chloro-3-fluorobenzyl)-3-(3,3-difluoro-4-(4-hydroxyphenyl)piperidin-1-yl)pyrrolidin-2-one] as the molecule, how does the Ki read?
A: 0.018 µM

Q: `O=C1C(N2CCC(c3ccc(O)cc3)C(F)(F)C2)CCN1Cc1ccc(F)c(F)c1` (stereo not drawn) [Example 97, 3-(3,3-Difluoro-4-(4-hydroxyphenyl)piperidin-1-yl)-1-(3,4-difluorobenzyl)pyrrolidin-2-one] was tested. Which Ki did it give?
A: 0.045 µM

Q: `O=C1C(N2CCC(c3ccc(O)cc3)C(F)(F)C2)CCN1Cc1ccc(Cl)c(Cl)c1` (stereo not drawn) [Example 98, 1-(3,4-Dichlorobenzyl)-3-(3,3-difluoro-4-(4-hydroxyphenyl)piperidin-1-yl)pyrrolidin-2-one] was tested. Which Ki did it give?
A: 0.23 µM

Q: `O=C1C(N2CCC(c3ccc(O)cc3)C(F)(F)C2)CCN1Cc1ccc(F)c(Cl)c1` (stereo not drawn) [Example 100, 1-(3-Chloro-4-fluorobenzyl)-3-(3,3-difluoro-4-(4-hydroxyphenyl)piperidin-1-yl)pyrrolidin-2-one] was tested. Which Ki did it give?
A: 0.57 µM

Q: For `O=C1[C@@H](N2CCC(c3ccc(O)cc3)C(F)(F)C2)CCN1c1ccc(OC(F)F)c(Cl)c1` (stereo partly drawn) [Example 101, P-1, (3S)-1-(3-Chloro-4-(difluoromethoxy)phenyl)-3-(3,3-difluoro-4-(4-hydroxyphenyl)-piperidin-1-yl)pyrrolidin-2-one], which Ki is on record?
A: 0.013 µM

Q: Which Ki does the source give for `O=C1[C@H](N2CCC(c3ccc(O)cc3)C(F)(F)C2)CCN1c1ccc(OC(F)F)c(Cl)c1` (stereo partly drawn) [Example 101, P-2, (3R)-1-(3-Chloro-4-(difluoromethoxy)phenyl)-3-(3,3-difluoro-4-(4-hydroxyphenyl)-piperidin-1-yl)pyrrolidin-2-one] here?
A: 0.011 µM

Q: How did the Ki turn out when `O=C1[C@@H](N2CCC(c3ccc(O)cc3)C(F)(F)C2)CCN1Cc1ccccc1` (stereo partly drawn) [Example 102, P-1, (3S)-1-Benzyl-3-(3,3-difluoro-4-(4-hydroxyphenyl)piperidin-1-yl)pyrrolidin-2-one] was run?
A: 0.74 µM

Q: `O=C1[C@H](N2CCC(c3ccc(O)cc3)C(F)(F)C2)CCN1Cc1ccccc1` (stereo partly drawn) [Example 102, P-2, (3R)-1-Benzyl-3-(3,3-difluoro-4-(4-hydroxyphenyl)piperidin-1-yl)pyrrolidin-2-one] was tested. Which Ki did it give?
A: 0.03 µM

Q: Which Ki does the source give for `Cc1ccccc1CN1CCC(N2CCC(c3ccc(O)cc3)C(F)(F)C2)C1=O` (stereo not drawn) [Example 103, 3-(3,3-Difluoro-4-(4-hydroxyphenyl)piperidin-1-yl)-1-(2-methylbenzyl)pyrrolidin-2-one] here?
A: 0.081 µM

Q: How did the Ki turn out when `Cc1cccc(CN2CCC(N3CCC(c4ccc(O)cc4)C(F)(F)C3)C2=O)c1` (stereo not drawn) [Example 104, 3-(3,3-Difluoro-4-(4-hydroxyphenyl)piperidin-1-yl)-1-(3-methylbenzyl)pyrrolidin-2-one] was run?
A: 0.13 µM

Q: `O=C1C(N2CCC(c3ccc(O)cc3)C(F)(F)C2)CCN1Cc1ccc(OC(F)F)cc1` (stereo not drawn) [Example 105, 3-(3,3-Difluoro-4-(4-hydroxyphenyl)piperidin-1-yl)-1-(4-(difluoromethoxy)benzyl)-pyrrolidin-2-one] was tested. Which Ki did it give?
A: 0.18 µM

Q: With `O=C1[C@@H](N2CCC(c3ccc(O)cc3)C(F)(F)C2)CCN1Cc1ccc(Cl)cc1` (stereo partly drawn) [Example 106, P-1, (3S)-1-(4-Chlorobenzyl)-3-(3,3-difluoro-4-(4-hydroxyphenyl)piperidin-1-yl)pyrrolidin-2-one] as the molecule, how does the Ki read?
A: 0.99 µM

Q: With `O=C1[C@H](N2CCC(c3ccc(O)cc3)C(F)(F)C2)CCN1Cc1ccc(Cl)cc1` (stereo partly drawn) [Example 106, P-2, (3R)-1-(4-Chlorobenzyl)-3-(3,3-difluoro-4-(4-hydroxyphenyl)piperidin-1-yl)pyrrolidin-2-one] as the molecule, how does the Ki read?
A: 0.0046 µM

Q: `O=C1C(N2CCC(c3ccc(O)cc3)C(F)(F)C2)CCN1Cc1ccc(Cl)c(Cl)c1` (stereo not drawn) [Example 109, 1-(3,4-Dichlorobenzyl)-3-(3,3-difluoro-4-(4-hydroxyphenyl)piperidin-1-yl)pyrrolidin-2-one] was tested. Which Ki did it give?
A: 0.29 µM

Q: `O=C1C(N2CCC(c3ccc(O)cc3)C(F)(F)C2)CCN1Cc1ccc(C(F)(F)F)cc1` (stereo not drawn) [Example 110, 3-(3,3-Difluoro-4-(4-hydroxyphenyl)piperidin-1-yl)-1-(4-(trifluoromethyl)benzyl)-pyrrolidin-2-one] was tested. Which Ki did it give?
A: 0.036 µM

Q: With `O=C1C(N2CCC(c3ccc(O)cc3)C(F)(F)C2)CCN1Cc1ccc(F)c(Cl)c1` (stereo not drawn) [Example 111, 1-(3-Chloro-4-fluorobenzyl)-3-(3,3-difluoro-4-(4-hydroxyphenyl)piperidin-1-yl)pyrrolidin-2-one] as the molecule, how does the Ki read?
A: 0.59 µM

Q: How did the Ki turn out when `O=C1C(N2CCN(c3ccc(O)cc3)CC2)CCN1Cc1ccc(F)cc1` (stereo not drawn) [Example 113, 1-(4-fluorobenzyl)-3-(4-(4-hydroxyphenyl)piperazin-1-yl)pyrrolidin-2-one] was run?
A: 0.033 µM

Q: Which Ki does the source give for `O=C1[C@H](N2CC[C@@H](c3ccc(O)cc3)[C@H](F)C2)CCN1Cc1ccc(C(F)F)cc1` [Example 114, P-1, (R)-1-(4-(difluoromethyl)benzyl)-3-((3S,4S)-3-fluoro-4-(4-hydroxyphenyl)piperidin-1-yl)pyrrolidin-2-one] here?
A: 0.0035 µM

Q: `O=C1[C@@H](N2CC[C@@H](c3ccc(O)cc3)[C@H](F)C2)CCN1Cc1ccc(C(F)F)cc1` [Example 114, P-2, (S)-1-(4-(difluoromethyl)benzyl)-3-((3S,4S)-3-fluoro-4-(4-hydroxyphenyl)piperidin-1-yl)pyrrolidin-2-one] was tested. Which Ki did it give?
A: 0.18 µM

Q: How did the Ki turn out when `Cc1ccc(CN2CC[C@@H](N3CC[C@@H](c4ccc(O)c(F)c4)[C@H](F)C3)C2=O)cc1` [Example 115, (R)-3-((3S,4S)-3-fluoro-4-(3-fluoro-4-hydroxyphenyl)piperidin-1-yl)-1-(4-methylbenzyl)pyrrolidin-2-one] was run?
A: 0.0027 µM

Q: For `O=C1[C@H](N2CC[C@@H](c3ccc(O)c(F)c3)[C@H](F)C2)CCN1Cc1ccc(Cl)cc1` [Example 116, (R)-1-(4-chlorobenzyl)-3-((3S,4S)-3-fluoro-4-(3-fluoro-4-hydroxyphenyl)piperidin-1-yl)pyrrolidin-2-one], which Ki is on record?
A: 0.002 µM

Q: How did the Ki turn out when `O=C1[C@@H](N2CC[C@@H](c3ccc(O)c(F)c3)[C@H](F)C2)CCN1Cc1ccc(C(F)F)cc1` [Example 117, P-1, (S)-1-(4-(difluoromethyl)benzyl)-3-((3S,4S)-3-fluoro-4-(3-fluoro-4-hydroxyphenyl)piperidin-1-yl)pyrrolidin-2-one] was run?
A: 0.079 µM

Q: How did the Ki turn out when `O=C1[C@H](N2CC[C@@H](c3ccc(O)c(F)c3)[C@H](F)C2)CCN1Cc1ccc(C(F)F)cc1` [Example 117, P-2, (R)-1-(4-(difluoromethyl)benzyl)-3-((3S,4S)-3-fluoro-4-(3-fluoro-4-hydroxyphenyl)piperidin-1-yl)pyrrolidin-2-one] was run?
A: 0.0029 µM

same assay, conditions: 3H Ro 25-6981 (4 nM), read-out: binding Ki

Q: For `O=C1C(N2CCC(c3ccc(O)cc3)CC2)CCN1Cc1ccc(F)cc1` (racemic) [Example 1, 1-(4-Fluorobenzyl)-3-(4-(4-hydroxyphenyl)piperidin-1-yl)pyrrolidin-2-one], which Ki is on record?
A: 0.004 µM

molecular target: NR2B-subtype receptors (Mus musculus (Mouse), UniProt P35438+Q01097); experiment: Ex vivo occupancy assay; format: in vivo; details: mice, after i.v. dosing
Experimental: 7-9 weeks old male CD-1 mice were dosed intravenously in a vehicle consisting of 10% dimethylacetamide, 40% PEG-400, […], and 30% water with experimental compounds and the forebrains were harvested 15 minutes […] by decapitation. The brain samples were immediately snap-frozen and stored at −80° C. On the following day, the dosed brain samples were thawed on ice for 15-20 minutes followed by homogenization using Polytron for 10 seconds in cold homogenization buffer composed of 50 mM KH2PO4 (pH adjusted to 7.4 with KOH), 1 mM EDTA, 0.005% Triton X 100 and protease inhibitor cocktail (Sigma Aldrich). The crude homogenates were further homogenized using a Dounce homogenizer and the homogenized membrane aliquots from all animals were flash-frozen and stored at −80° C. until further use. The whole homogenization process was performed on ice.
For determining occupancy, the membrane homogenates were first thawed on ice and then needle-homogenized using a 25 gauge needle. The homogenized membrane (6.4 mg/ml) was added to a 96-well plate followed by addition of ^3H Ro 25-6981 (6 nM). […] The filter plates were dried at 50° C. for 20 mins, incubated with microscint 20 for 10 minutes and read on TopCount (Perkin Elmer). […] Non-specific binding was determined using 10 μM Ro 25-6981 added to the wells containing membrane homogenates from vehicle-dosed animals. […]

Sequence of NR2B-subtype receptors (Q01097 27-1482, other chains not shown): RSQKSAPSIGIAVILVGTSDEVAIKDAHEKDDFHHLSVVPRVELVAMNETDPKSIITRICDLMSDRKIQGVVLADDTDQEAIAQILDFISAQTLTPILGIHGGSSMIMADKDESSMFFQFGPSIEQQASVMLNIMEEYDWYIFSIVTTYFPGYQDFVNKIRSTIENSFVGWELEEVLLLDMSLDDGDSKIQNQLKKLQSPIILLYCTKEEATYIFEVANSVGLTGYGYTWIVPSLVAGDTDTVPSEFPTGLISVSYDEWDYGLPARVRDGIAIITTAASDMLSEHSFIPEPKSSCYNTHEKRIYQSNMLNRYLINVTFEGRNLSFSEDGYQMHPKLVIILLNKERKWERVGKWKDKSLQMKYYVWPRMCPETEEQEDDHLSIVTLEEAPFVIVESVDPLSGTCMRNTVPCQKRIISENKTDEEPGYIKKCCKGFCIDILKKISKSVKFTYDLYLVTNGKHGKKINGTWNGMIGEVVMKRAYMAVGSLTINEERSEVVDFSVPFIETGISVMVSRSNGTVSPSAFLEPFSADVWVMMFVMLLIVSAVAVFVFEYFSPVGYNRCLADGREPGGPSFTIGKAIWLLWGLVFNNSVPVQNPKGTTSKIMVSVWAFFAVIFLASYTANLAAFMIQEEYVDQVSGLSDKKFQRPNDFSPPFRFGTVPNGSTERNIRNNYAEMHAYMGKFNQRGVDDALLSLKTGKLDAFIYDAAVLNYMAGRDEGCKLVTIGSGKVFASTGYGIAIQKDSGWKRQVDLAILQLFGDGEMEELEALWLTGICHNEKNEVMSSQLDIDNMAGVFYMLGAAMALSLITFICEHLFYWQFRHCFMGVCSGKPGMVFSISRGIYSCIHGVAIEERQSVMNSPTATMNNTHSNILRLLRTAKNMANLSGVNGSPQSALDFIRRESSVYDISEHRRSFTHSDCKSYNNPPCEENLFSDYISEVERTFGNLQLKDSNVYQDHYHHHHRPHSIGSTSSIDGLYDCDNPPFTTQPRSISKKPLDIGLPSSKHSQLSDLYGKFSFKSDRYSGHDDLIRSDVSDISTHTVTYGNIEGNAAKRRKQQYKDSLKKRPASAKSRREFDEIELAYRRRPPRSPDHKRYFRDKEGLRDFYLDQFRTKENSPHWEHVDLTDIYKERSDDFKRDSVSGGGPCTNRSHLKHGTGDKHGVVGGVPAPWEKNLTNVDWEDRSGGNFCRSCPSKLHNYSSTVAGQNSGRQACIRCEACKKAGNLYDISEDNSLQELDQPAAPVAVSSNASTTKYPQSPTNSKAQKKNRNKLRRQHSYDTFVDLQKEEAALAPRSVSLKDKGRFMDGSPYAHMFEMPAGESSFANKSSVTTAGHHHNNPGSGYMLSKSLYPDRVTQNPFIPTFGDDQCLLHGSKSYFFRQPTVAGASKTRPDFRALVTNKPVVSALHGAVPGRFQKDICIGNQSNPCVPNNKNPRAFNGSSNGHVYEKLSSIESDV

Q: `O=C1C(N2CCC(c3ccc(O)cc3)CC2)CCN1Cc1ccc(F)cc1` (racemic) [Example 1, 1-(4-Fluorobenzyl)-3-(4-(4-hydroxyphenyl)piperidin-1-yl)pyrrolidin-2-one] was tested. Which “occupancy of brain-resident NR2B-subtype receptors (in words)” value did it give?
A: occupies brain-resident NR2B-subtype receptors
